What was measured:
[1] = set-up: method as in PMID 34908893; details: rats; 90‐day; cited from earlier work
[2] = ^14C‐plasma, liver, and kidney distribution study with or without OATP inhibitors; assay type: in vivo, Crl:CD1(ICR) mice; details: for Kidney/plasma ratio of ^14C / Liver/plasma ratio of ^14C: 2 h
Protocol: Crl:CD1(ICR) mice at the age of 7 weeks were purchased from Charles River Laboratories Japan, Inc., Hino Breeding Center. The mice at the age of 8 or 9 weeks were dosed after completing a 7‐day quarantine period and an additional 0‐ to 7‐day acclimatization period. All animal experiments were conducted in accordance with the Guidance for the Care and Use of Laboratory Animals in our laboratory, which corresponds to the Guidelines for Proper Conduct of Animal Experiments (Science Council of Japan). Animals were maintained under constant environmental conditions: room temperature, 21−25°C; relative humidity, 55% ±15%; ventilation, 10 air exchanges per hour; and artificial lighting, from 8:00 am to 8:00 pm. The animals were provided with pelleted diet and water ad libitum. […] All animals were euthanized by bleeding from the abdominal artery under anesthesia.
[^14C]Epyrifenacil was isotopically diluted with the unlabeled test compound to adjust the specific activity to 5.00 MBq/mg. After evaporation of the solvent under nitrogen gas flow, labeled material was suspended in 0.5% (w/v) methylcellulose solution at a concentration of 1 mg/5 ml by grinding in a mortar. The suspension was stored frozen until the start of dosing. The radiochemical purity of the dosing suspension was analyzed by radio‐HPLC and was confirmed to be >99%. […] These dosing suspensions were stored in a refrigerator until dosing commenced.
Three mice per sex at 8 weeks old were given a single oral dose of [^14C]epyrifenacil at 1 mg/kg with or without co‐administration of OATP inhibitors. […] At 2 h after administration of [^14C]epyifenacil, the animals were euthanized by whole blood collection from the abdominal aorta under anesthesia with isoflurane. The sampling time point was selected as the time around T max based on the result of the blood ^14C‐concentration study. Then, the liver and kidney were dissected out, and the amount of ^14C was measured. Aliquots of heparinized blood samples were separated into blood cells and plasma by centrifugation at 2000g for 10 min at 4°C. The total weight of the liver and kidney was determined for each animal. Two aliquots of plasma and tissue samples (approximately 0.05–0.1 g) were weighed in a glass vial, and the radioactivity was measured.

[3] = Female, epyrifenacil 1 mg/kg p.o. + Digoxin 100 mg/kg i.p.
[4] = Female, epyrifenacil 1 mg/kg p.o. + Digoxin 200 mg/kg p.o.
[5] = Female, epyrifenacil 1 mg/kg p.o. + Rifampicin 200 mg/kg p.o.
[6] = Female, epyrifenacil 1 mg/kg p.o., no inhibitor
[7] = Female, 2 h after epyrifenacil 1 mg/kg p.o. + Digoxin 100 mg/kg i.p.
[8] = Female, 2 h after epyrifenacil 1 mg/kg p.o. + Digoxin 100 mg/kg i.p., listed as [^14C]Epyrifenacil
[9] = Female, 2 h after epyrifenacil 1 mg/kg p.o. + Digoxin 200 mg/kg p.o.
[10] = Female, 2 h after epyrifenacil 1 mg/kg p.o. + Digoxin 200 mg/kg p.o., listed as [^14C]Epyrifenacil
[11] = Female, 2 h after epyrifenacil 1 mg/kg p.o. + Rifampicin 200 mg/kg p.o.
[12] = Female, 2 h after epyrifenacil 1 mg/kg p.o. + Rifampicin 200 mg/kg p.o., listed as [^14C]Epyrifenacil
[13] = Female, 2 h after epyrifenacil 1 mg/kg p.o., no inhibitor
[14] = Female, 2 h after epyrifenacil 1 mg/kg p.o., no inhibitor, listed as [^14C]Epyrifenacil
[15] = Male, epyrifenacil 1 mg/kg p.o. + Digoxin 100 mg/kg i.p.
[16] = Male, epyrifenacil 1 mg/kg p.o. + Digoxin 200 mg/kg p.o.
[17] = Male, epyrifenacil 1 mg/kg p.o. + Rifampicin 200 mg/kg p.o.
[18] = Male, epyrifenacil 1 mg/kg p.o., no inhibitor

## CCOC(=O)COc1ncccc1Oc1cc(-n2c(=O)cc(C(F)(F)F)n(C)c2=O)c(F)cc1Cl [Epyrifenacil, ethyl[(3‐{2‐chloro‐4‐fluoro‐5‐[3‐methyl‐2,6‐dioxo‐4‐(trifluoromethyl)‐3,6‐dihydropyrimidin‐1(2H)‐yl]phenoxy}pyridin‐2‐yl)oxy]acetate]
[1]
  Hepatocyte injury: produced hepatocyte injury
[2]; [3]
  Kidney/plasma ratio of ^14C: (2.2)
  Liver/plasma ratio of ^14C: (41)
[2]; [4]
  Kidney/plasma ratio of ^14C: (1.6)
  Liver/plasma ratio of ^14C: (43)
[2]; Female, epyrifenacil 1 mg/kg p.o. + Digoxin 200 mg/kg p.o., listed as [^14C]epyrifenacil
  Liver/plasma ratio of ^14C: ca. 43
[2]; [5]
  Kidney/plasma ratio of ^14C: (0.60)
  Liver/plasma ratio of ^14C: (4.0)
[2]; Female, epyrifenacil 1 mg/kg p.o. + Rifampicin 200 mg/kg p.o., listed as [^14C]epyrifenacil
  Liver/plasma ratio of ^14C: ~4
[2]; [6]
  Kidney/plasma ratio of ^14C: (1.3)
  Liver/plasma ratio of ^14C: (35)
[2]; Female, epyrifenacil 1 mg/kg p.o., no inhibitor, listed as [^14C]epyrifenacil
  Liver/plasma ratio of ^14C: ~35
[2]; [7]
  ^14C‐Concentration, Kidney: 0.184 ± 0.0360 μg eq. of epyrifenacil/g tissue
  ^14C‐Concentration, Liver: 3.390 ± 1.9870 μg eq. of epyrifenacil/g tissue
  ^14C‐Concentration, Plasma: 0.082 ± 0.0574 μg eq. of epyrifenacil/g tissue
[2]; [8]
  ^14C‐Concentration, Kidney: 0.184 μg eq. of epyrifenacil/g tissue
  ^14C‐Concentration, Liver: 3.390 μg eq. of epyrifenacil/g tissue
  ^14C‐Concentration, Plasma: 0.082 μg eq. of epyrifenacil/g tissue
[2]; [9]
  ^14C‐Concentration, Kidney: 0.086 ± 0.0096 μg eq. of epyrifenacil/g tissue
  ^14C‐Concentration, Liver: 2.344 ± 0.4524 μg eq. of epyrifenacil/g tissue
  ^14C‐Concentration, Plasma: 0.054 ± 0.0118 μg eq. of epyrifenacil/g tissue
[2]; [10]
  ^14C‐Concentration, Kidney: 0.086 μg eq. of epyrifenacil/g tissue
  ^14C‐Concentration, Liver: 2.344 μg eq. of epyrifenacil/g tissue
  ^14C‐Concentration, Plasma: 0.054 μg eq. of epyrifenacil/g tissue
[2]; [11]
  ^14C‐Concentration, Kidney: 0.130 ± 0.0548 μg eq. of epyrifenacil/g tissue
  ^14C‐Concentration, Liver: 0.880 ± 0.4160 μg eq. of epyrifenacil/g tissue
  ^14C‐Concentration, Plasma: 0.217 ± 0.1551 μg eq. of epyrifenacil/g tissue
[2]; [12]
  ^14C‐Concentration, Kidney: 0.130 μg eq. of epyrifenacil/g tissue
  ^14C‐Concentration, Liver: 0.880 μg eq. of epyrifenacil/g tissue
  ^14C‐Concentration, Plasma: 0.217 μg eq. of epyrifenacil/g tissue
[2]; [13]
  ^14C‐Concentration, Kidney: 0.190 ± 0.0511 μg eq. of epyrifenacil/g tissue
  ^14C‐Concentration, Liver: 5.136 ± 1.1225 μg eq. of epyrifenacil/g tissue
  ^14C‐Concentration, Plasma: 0.147 ± 0.0642 μg eq. of epyrifenacil/g tissue
[2]; [14]
  ^14C‐Concentration, Kidney: 0.190 μg eq. of epyrifenacil/g tissue
  ^14C‐Concentration, Liver: 5.136 μg eq. of epyrifenacil/g tissue
  ^14C‐Concentration, Plasma: 0.147 μg eq. of epyrifenacil/g tissue
[2]; [15]
  Kidney/plasma ratio of ^14C: (1.7)
  Liver/plasma ratio of ^14C: (67)
[2]; [16]
  Kidney/plasma ratio of ^14C: (2.6)
  Liver/plasma ratio of ^14C: (97)
[2]; Male, epyrifenacil 1 mg/kg p.o. + Digoxin 200 mg/kg p.o., listed as [^14C]epyrifenacil
  Liver/plasma ratio of ^14C: ca. 97
[2]; [17]
  Kidney/plasma ratio of ^14C: (0.96)
  Liver/plasma ratio of ^14C: (11)
[2]; [18]
  Kidney/plasma ratio of ^14C: (1.3)
  Liver/plasma ratio of ^14C: (73)
[2]; Male, epyrifenacil 1 mg/kg p.o., no inhibitor, listed as [^14C]epyrifenacil
  Liver/plasma ratio of ^14C: ca. 73
[2]; Male, 2 h after epyrifenacil 1 mg/kg p.o. + Digoxin 100 mg/kg i.p.
  ^14C‐Concentration, Kidney: 0.140 ± 0.0527 μg eq. of epyrifenacil/g tissue

Reference: publication PMC8496750, “Identification of the organic anion transporting polypeptides responsible for the hepatic uptake of the major metabolite of epyrifenacil, S‐3100‐CA, in mice” (Pharmacology Research & Perspectives, 2021)
